This is an account of results in ChEMBL document CHEMBL1135610, “Aza-peptide epoxides: a new class of inhibitors selective for clan CD cysteine proteases” (J Med Chem, 2002).

Activity calls are given as the source filed them. The rule behind the calls is not given here. Where only a bound is given, the exact number is not on record here.

The target in one assay is T1, Caspase-1 (Homo sapiens) (UniProt P29466).
T1 sequence (whole entry): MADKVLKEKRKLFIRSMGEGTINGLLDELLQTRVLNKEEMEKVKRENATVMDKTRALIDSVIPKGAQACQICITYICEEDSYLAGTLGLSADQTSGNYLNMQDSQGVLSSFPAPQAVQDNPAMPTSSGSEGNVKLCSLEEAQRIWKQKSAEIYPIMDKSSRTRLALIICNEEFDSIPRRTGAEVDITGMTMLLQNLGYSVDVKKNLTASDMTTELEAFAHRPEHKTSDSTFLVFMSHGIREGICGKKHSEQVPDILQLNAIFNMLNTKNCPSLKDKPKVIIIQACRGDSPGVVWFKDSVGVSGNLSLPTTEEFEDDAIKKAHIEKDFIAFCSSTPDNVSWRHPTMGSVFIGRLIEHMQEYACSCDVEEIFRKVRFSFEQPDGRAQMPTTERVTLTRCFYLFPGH
In words: Inhibitory activity against Caspase-1.

Another assay concerns the target T2, Caspase-6 (Homo sapiens) (UniProt P55212).
T2 sequence (whole entry): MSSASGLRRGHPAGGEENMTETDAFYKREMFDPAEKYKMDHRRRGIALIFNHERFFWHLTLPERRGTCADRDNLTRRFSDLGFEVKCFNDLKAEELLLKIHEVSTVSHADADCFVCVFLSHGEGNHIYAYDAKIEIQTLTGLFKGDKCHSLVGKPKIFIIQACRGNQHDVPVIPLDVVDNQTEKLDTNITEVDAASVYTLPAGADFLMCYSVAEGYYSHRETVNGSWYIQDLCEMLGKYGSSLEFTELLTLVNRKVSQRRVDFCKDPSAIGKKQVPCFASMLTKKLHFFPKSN
In words: Inhibitory activity against Caspase-6.

For the next assay, the target named is Caspase-8 (Homo sapiens) (UniProt Q14790). In words: Inhibitory activity against Caspase-8.
The target in assay [1] is Cathepsin B (Homo sapiens) (UniProt P07858). In words: Inhibitory activity against Cathepsin B.
The target of assay [2] is T3, Papain (Carica papaya) (UniProt P00784).
T3 sequence (whole entry): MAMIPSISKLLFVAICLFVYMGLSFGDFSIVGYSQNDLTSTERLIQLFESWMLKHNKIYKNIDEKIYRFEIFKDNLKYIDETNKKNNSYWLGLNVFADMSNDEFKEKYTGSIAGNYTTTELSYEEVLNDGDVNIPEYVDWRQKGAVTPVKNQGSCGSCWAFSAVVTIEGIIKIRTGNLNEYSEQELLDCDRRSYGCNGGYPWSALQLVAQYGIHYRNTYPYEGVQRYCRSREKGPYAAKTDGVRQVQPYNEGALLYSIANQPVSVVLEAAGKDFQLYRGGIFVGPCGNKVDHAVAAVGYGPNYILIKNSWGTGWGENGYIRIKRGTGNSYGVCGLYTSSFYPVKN
In words: Inhibitory activity against papain.

In a further assay the target is T4, Caspase-3 (Homo sapiens) (UniProt P42574).
T4 sequence (whole entry): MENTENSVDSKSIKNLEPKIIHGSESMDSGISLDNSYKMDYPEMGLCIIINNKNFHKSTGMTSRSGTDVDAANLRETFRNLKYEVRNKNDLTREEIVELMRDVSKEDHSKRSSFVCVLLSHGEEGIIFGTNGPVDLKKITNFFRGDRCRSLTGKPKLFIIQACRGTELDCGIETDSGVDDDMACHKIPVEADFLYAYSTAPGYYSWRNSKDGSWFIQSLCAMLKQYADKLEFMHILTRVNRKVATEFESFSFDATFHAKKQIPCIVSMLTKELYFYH
In words: Inhibitory activity against Caspase-3.

The test system of assay [3] is Legumain (Sus scrofa). In words: Inhibitory activity against legumain.
For assay [4], the target named is Cathepsin B (Homo sapiens) (UniProt P07858). In words: Inhibitory activity against Cathepsin B; No inhibition.
Assay [5] has as its target T3, Papain (Carica papaya). In words: Inhibitory activity against papain; No inhibition.
Assay [6] relates to Legumain (Sus scrofa). In words: Inhibitory activity against legumain; No inhibition.

Caspase-8 (Homo sapiens), sequence (Q14790 217-374 limits assumed): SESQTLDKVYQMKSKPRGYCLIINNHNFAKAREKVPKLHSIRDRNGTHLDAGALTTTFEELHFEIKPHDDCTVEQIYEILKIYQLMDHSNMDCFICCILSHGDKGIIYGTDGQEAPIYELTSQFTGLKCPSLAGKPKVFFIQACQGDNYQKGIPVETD
Caspase-8 (Homo sapiens), sequence (Q14790 385-479 limits assumed): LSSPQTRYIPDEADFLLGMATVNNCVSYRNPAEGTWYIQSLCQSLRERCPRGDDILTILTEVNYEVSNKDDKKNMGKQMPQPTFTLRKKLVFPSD

Consider `CC(C)[C@H](NC(=O)CCc1ccccc1)C(=O)N[C@@H](C)C(=O)NN(CC(=O)O)C(=O)C1OC1C(=O)OCc1ccccc1` (stereo not given in full), for which the k obs / 1 on Caspase-1 (Homo sapiens) was 36200 M⁻¹ s⁻¹; on Caspase-6 (Homo sapiens), 52 M⁻¹ s⁻¹; at Caspase-8 (Homo sapiens) it was 63 M⁻¹ s⁻¹; in assay [1], under 10 M⁻¹ s⁻¹; on Papain (Carica papaya) [2], under 10 M⁻¹ s⁻¹; at Caspase-3 (Homo sapiens), 58 M⁻¹ s⁻¹. Moreover, the k obs / 1 in the assay with Legumain (Sus scrofa) [3] came to 21 M⁻¹ s⁻¹.

For the molecule `CCOC(=O)C1OC1C(=O)N(CC(N)=O)NC(=O)[C@@H](C)NC(=O)[C@@H](C)NC(=O)Cc1ccccc1` (stereo in doubt; 17), the NI entry (in assay [4]; at Papain (Carica papaya) [5]) was “inactive” each time. The molecule also registered a k obs / 1 in the assay on Legumain (Sus scrofa) [3] of 142 M⁻¹ s⁻¹.

As for `CCOC(=O)C1OC1C(=O)N(CC(C)C)NC(=O)[C@@H](CC(C)C)NC(=O)[C@@H](CC(C)C)NC(=O)Cc1ccccc1` (stereo in doubt; 20), the NI result (in assay [4]; in the assay on Legumain (Sus scrofa) [6]) was “inactive” each time. Further, on Papain (Carica papaya) [5], the k obs / 1 stood at 35 M⁻¹ s⁻¹.

`CC(C)[C@H](NC(=O)CCc1ccccc1)C(=O)N[C@@H](C)C(=O)NN(CC(=O)O)C(=O)C1OC1CCc1ccccc1` (stereo not given in full): the k obs / 1 on Caspase-1 (Homo sapiens) is 6130 M⁻¹ s⁻¹; at Caspase-6 (Homo sapiens), under 10 M⁻¹ s⁻¹; on Caspase-8 (Homo sapiens), under 10 M⁻¹ s⁻¹; at Caspase-3 (Homo sapiens), under 10 M⁻¹ s⁻¹. Besides, the NI entry (in assay [4]; at Papain (Carica papaya) [5]; with Legumain (Sus scrofa) [6]) was “inactive” throughout.
